Test results: PubChem BioAssay AID504440 (Sanford-Burnham Center for Chemical Genomics, 2011)
pIC50: −log10 of the molar value. “And” between values parts separate entries of the source, which are not always exact repeats. Equal entries are not always repeated. The source made the active and inactive calls.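 How the source made its calls: active means mean IC50 below 5 µM in the confirmatory dose response test; inactive means the rest.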

system: AML12 mouse hepatocytes, BODIPY lipid droplet imaging; assay: inhibitors of hepatocyte lipid droplet formation, SAR follow-up, imaging, AML12 mouse hepatocytes, set 2 (AID 504440)

Structure (SMILES) | pIC50 | IC50
COc1ccc(CCNC(=O)c2cc(-c3ccccc3)c(N3CCOCC3)s2)cc1OC | 6.57 and 6.73 | –
CCOc1ccc(CCNC(=O)c2cc3ccccc3n2C)cc1OC | 6.09 | –
CCn1c(C(=O)NCc2ccc3c(c2)OCO3)cc2sccc21 | – | > 10000 nM (inactive)
COc1ccc(CCNC(=O)c2cc(-c3ccccc3)c(N3CCOCC3)s2)c(OC)c1OC | 7.05 | –
COc1ccc(CCNC(=O)CSc2cc(=O)n(C)c3ccccc23)cc1OC | – | > 10000 nM (inactive)
CCOc1ccc(CCNC(=O)Cn2nc(C)c3c(C)n(-c4ccccc4)nc3c2=O)cc1OCC | 6.73 | –
CCOc1ccc(CCNC(=O)CCC(=O)N2CCSc3ccccc32)cc1OCC | 7.16 | –
CCOc1ccc(CCNC(=O)c2cc3sccc3n2CC)cc1OC | 6.58 | –
CCOc1ccc(CCNC(=O)c2cc3sccc3n2C)cc1OCC | 6.91 | –
Cn1c(=O)cc(SCC(=O)Nc2ccc3c(c2)OCO3)c2ccccc21 | – | > 10000 nM (inactive)
CCOc1ccc(CCNC(=O)c2cc(-c3ccccc3)c(N3CCOCC3)s2)cc1OC | 7.67 | –
CCOc1ccc(CCNC(=O)COC(=O)c2ccc(OC)c(OC)c2OC)cc1OCC | 7.43 | –
COc1cc(CNC(=O)c2cc3ccsc3n2C)cc(OC)c1OC | – | > 10000 nM (inactive)
CCOc1ccc(CCNC(=O)Cn2cccc2C(=O)c2ccccc2C)cc1OCC | 6.46 | –
O=C(NCCc1ccc2c(c1)OCO2)c1ccc(N2CCOCC2)s1 | – | > 10000 nM (inactive)
CCOc1ccc(CCNC(=O)CCC(=O)N2CCOc3ccccc32)cc1OCC | 6.70 | –
Cn1c(C(=O)NCCc2ccc3c(c2)OCO3)cc2ccccc21 | – | > 10000 nM (inactive)
CCOc1cc(CCNC(=O)c2cc3sccc3[nH]2)ccc1OC | 5.66 | –
CCOc1ccc(CCNC(=O)CCc2nnc3ccc(N4CCCCC4)nn23)cc1OCC | 6.70 | –
COc1ccc(NC(=O)c2cc3ccsc3n2C)cc1OC | – | > 10000 nM (inactive)
CCn1c(C(=O)NCCc2ccc(OC)c(OC)c2)cc2sc(Cl)cc21 | 5.87 | –
CCOc1cc(CCNC(=O)c2cc3ccsc3n2C)ccc1OC | 6.19 | –
CCOc1cc(CCNC(=O)c2cc3sccc3n2CC)ccc1OC | 7.20 | –
CCOc1ccc(CCNC(=O)COc2cc(=O)n(C)c3ccccc23)cc1OCC | 6.02 | –
CCOc1ccc(CCNC(=O)CN2C(=O)c3cccnc3Oc3ccc(C)cc32)cc1OCC | 6.89 | –
CCn1c(C(=O)Nc2ccc3c(c2)OCO3)cc2sccc21 | – | > 10000 nM (inactive)

Structure (SMILES) | pIC50 | IC50
CCOc1ccc(CCNC(=O)C2CC=CCC2C(=O)OC(C)C)cc1OCC (stereo not drawn) | 6.59 | –
COc1ccc(CNC(=O)CSc2cc(=O)n(C)c3ccccc23)cc1OC | – | > 10000 nM (inactive)
Cn1c(C(=O)Nc2ccc3c(c2)OCO3)cc2ccsc21 | – | > 10000 nM (inactive)
CCn1c(C(=O)NCc2cc(OC)c(OC)c(OC)c2)cc2ccsc21 | 5.52 | –
CCn1c(C(=O)NCCc2ccc(OC)c(OC)c2)cc2ccsc21 | 5.67 | –
CCOc1cc(CCNC(=O)c2ccc(N3CCOCC3)s2)ccc1OC | 5.63 | –
COc1ccc(CNC(=O)c2cc3ccsc3n2C)cc1OC | – | > 10000 nM (inactive)
CCOc1ccc(CCNC(=O)CSc2cc(=O)n(CC)c3ccccc23)cc1OCC | 6.01 | –
Cn1c(=O)cc(SCC(=O)NCCc2ccc3c(c2)OCO3)c2ccccc21 | – | > 10000 nM (inactive)
CCOc1ccc(CCNC(=O)c2cc3ccsc3n2CC)cc1OC | 6.30 | –
O=C(NCCc1ccc2c(c1)OCO2)c1cc(-c2ccccc2)c(N2CCOCC2)s1 | 5.49 | –
CCOc1cc(CCNC(=O)c2cc(-c3ccccc3)c(N3CCOCC3)s2)ccc1OC | 7.37 | –
COc1ccc(CCNC(=O)c2cc3sc(Cl)cc3n2C)cc1OC | – | 7020 nM (inactive)
CCOc1ccc(CCNC(=O)Cn2cccc2C(=O)c2ccccc2)cc1OCC | 6.38 | –
COc1cc(CNC(=O)CSc2cc(=O)n(C)c3ccccc23)cc(OC)c1OC | – | > 10000 nM (inactive)
CCOc1ccc(CCNC(=O)CCc2nc(-c3ccc(OC)cc3)no2)cc1OCC | 6.69 | –
CCOc1cc(CCNC(=O)CSc2cc(=O)n(C)c3ccccc23)ccc1OC | – | 6380 nM (inactive)
O=C(NCCc1ccc2c(c1)OCO2)c1cc2sccc2[nH]1 | – | > 10000 nM (inactive)
Cn1c(=O)cc(SCC(=O)NCc2ccc3c(c2)OCO3)c2ccccc21 | – | > 10000 nM (inactive)
CCOc1ccc(CCNC(=O)CSc2cc(=O)n(C)c3ccccc23)cc1OC | 5.52 | –
CCOc1ccc(CCNC(=O)c2cc3ccsc3n2C)cc1OC | 5.96 | –
CCOc1ccc(CCNC(=O)c2cc3sc(Cl)cc3n2C)cc1OCC | 7.16 | –
CCOc1ccc(CCNC(=O)CSc2cc(=O)n(C)c3cc(Cl)ccc23)cc1OCC | 6.30 | –
CCOc1ccc(CCNC(=O)c2ccc(N3CCOCC3)s2)cc1OCC | 6.42 | –
COc1ccc(CNC(=O)c2cc(-c3ccccc3)c(N3CCOCC3)s2)cc1OC | 7.00 | –
COc1ccc(CNC(=O)c2ccc(N3CCOCC3)s2)cc1OC | – | > 10000 nM (inactive)

Structure (SMILES) | pIC50 | IC50
CCOc1ccc(CCNC(=O)CN2CCN(Cc3ccccc3C)C2=O)cc1OCC | 6.46 | –
COc1ccc(CCNC(=O)Cn2cccc2C(=O)c2ccccc2C)cc1OC | – | > 10000 nM (inactive)
CCOc1ccc(CCNC(=O)c2nnc(Cc3ccc(F)cc3)o2)cc1OCC | 6.46 | –
CCOc1cc(CCNC(=O)COc2cc(=O)n(C)c3ccccc23)ccc1OC | – | 8930 nM (inactive)
COc1ccc(CCNC(=O)c2cc3ccccc3n2C)cc1OC | – | > 10000 nM (inactive)
CCOc1ccc(CCNC(=O)CCC(=O)N2CCOc3ccc(C)cc32)cc1OCC | 6.63 | –
CCOc1ccc(CCNC(=O)COC(=O)c2cc(OC)c(OC)c(OC)c2)cc1OCC | 6.98 | –
CCOc1ccc(CCNC(=O)c2cc3sccc3n2CC)cc1OCC | 7.40 | –
CCOc1ccc(CCNC(=O)COC(=O)c2cc(OC)cc(OC)c2)cc1OCC | 5.96 | –
CCOc1ccc(CCNC(=O)CCc2nnc3ccc(N4CCCC4)nn23)cc1OCC | 6.11 | –
CCn1c(C(=O)NCc2ccc(OC)c(OC)c2)cc2ccsc21 | – | > 10000 nM (inactive)
CCOc1ccc(CCNC(=O)c2cc3sccc3[nH]2)cc1OCC | 6.19 | –
CCOc1ccc(CCNC(=O)c2cc3ccsc3n2CC)cc1OCC | 7.11 | –
CCOc1cc(CCNC(=O)c2cc3ccccc3n2C)ccc1OC | 5.98 | –
CCOc1ccc(CCNC(=O)c2cc(-c3ccccc3)c(N3CCOCC3)s2)cc1OCC | 8.21 and 8.19 | –
CCn1c(C(=O)Nc2ccc(OC)c(OC)c2)cc2ccsc21 | – | > 10000 nM (inactive)
COc1ccc(CCNC(=O)c2cc3sccc3n2C)cc1OC | – | 8370 nM (inactive)
COc1ccc(CCNC(=O)COC(=O)c2cc(OC)c(OC)cc2OC)cc1OC | – | > 10000 nM (inactive)
CCOc1ccc(CCNC(=O)CSc2cc(=O)n(C)c3ccccc23)cc1OCC | 6.25 and 6.28 | –
CCn1c(C(=O)Nc2ccc(OC)c(OC)c2)cc2sccc21 | – | > 10000 nM (inactive)
CCOc1ccc(CCNC(=O)CCOc2cc(C)ccc2C)cc1OCC | 7.17 | –
CCn1c(C(=O)NCc2cc(OC)c(OC)c(OC)c2)cc2sccc21 | 5.32 | –
CCOc1ccc(CCNC(=O)Cn2ncn3nc(-c4ccc(OC)cc4)cc3c2=O)cc1OCC | 6.89 | –
CCn1c(C(=O)Nc2ccc3c(c2)OCO3)cc2ccsc21 | – | > 10000 nM (inactive)
Cn1c(C(=O)NCc2ccc3c(c2)OCO3)cc2ccsc21 | – | > 10000 nM (inactive)
CCOc1ccc(CCNC(=O)c2cc3ccsc3n2C)cc1OCC | 6.86 | –
